Results published in patent US20130116206A1, “QUINOLINE DERIVATIVES USED AS PET IMAGING AGENTS” (IMPERIAL INNOVATIONS LIMITED, priority 2009, published 2013).
Counter-ions that a name gives are not always drawn. Like-named read-outs stand apart in the source and are kept apart here.

Columns and labels:
EGFR kinase = molecular target: T1, EGFR kinase (Homo sapiens, UniProt P00533); experiment: EGFR tyrosine kinase enzyme inhibition assay (cell free, DELFIA time resolved fluorescence); assay type: biochemical; settings: for IC50 / EGFR kinase activity IC50, range in words: cell free kinase assay
T1 construct: purchased Sigma E-3641
Experimental: Assessment of the EGFR tyrosine kinase activity of control quinoline 1 together with quinolines 10, 13, 14, 17, 18, 24 and 25 was carried out using a cell free kinase activity inhibition assay as detailed below. BPDQ (4-N-(3-bromophenyl)quinazoline-4,6,7-triamine), a quinazoline based EGFR inhibitor was also included in this assay as a further reference standard.
The inhibitory activity of quinolines 1, 10, 13, 14, 17, 18, 24 and 25 against EGFR kinase activity was measured by a time resolved fluorescence assay (DELFIA, Perkin-Elmer Life Sciences, Boston, Mass., USA). […] The reaction proceeded at rt for 1 h and was stopped by addition of 100 mM EDTA. The enzyme reaction solution was diluted and aliquots added to 96-well ELISA streptavidin plates with shaking for 1 h. The plates were washed and phosphorylated Tyrosine was detected with Eu-labeled antiphosphotyrosine antibody (50 ng/well; PT66; PerkinElmer). After washing and enhancement steps, the plates were assessed in a Victor^3 multi-label counter (PerkinElmer) using the EGFR Europium protocol.

[1] = molecular target: T2, EGFR autophosphorylation in A431 cells (Homo sapiens, UniProt P00533); experiment: Inhibition of EGFR autophosphorylation in A431 cells (Western blot p-EGFR/total EGFR); assay type: cell-based; settings: for IC50: 3 h drug incubation then washing with drug free medium, mean ± sem, n = 3
T2 construct: highly EGFR-expressing A431 cells; endogenous in cells; host or cells: A431 human epidermoid cancer cells (ATCC)
Experimental: The ability of the compounds to be transported across cell membranes and to inhibit EGFR autophosphorylation was examined in highly EGFR-expressing A431 cells.
The cells were maintained in DMEM (Sigma-Aldrich Company Ltd, Dorset, UK) supplemented with 10% fetal bovine serum (Lonza, UK), and 2 mM L-glutamine, 100 U/ml penicillin, 100 μg/mL streptomycin and 1 μg/mL fungizone (GIBCO) in 6 well plates incubated at 37° C. in a humidified incubator with 5% CO2. The experiments were designed to assess irreversibility of EGFR inhibition by the compounds. Cells in exponential growth were incubated with quinolines 1, 10, 13, 14, 17, 18, 24 and 25 at various concentrations for 3 h. EGF (100 ng/ml) was added to the cells during the last 15 min to induce p-EGFR. The medium was removed and replaced with fresh compound-free medium for 1 h. The last step was then repeated twice. The cells were then washed with cold PBS and lysed in RIPA buffer (Invitrogen Ltd, Paisley, UK) supplemented with protease and phosphatase inhibitor cocktails (Sigma-Aldrich Company Ltd, Dorset, UK). Lysates were clarified by centrifugation. The following antibodies were used: rabbit polyclonal antibody anti-p-EGFR (Cell signalling Technology, Denver, Mass.; 1:1000) and rabbit polyclonal antibody anti-EGFR (Santa Cruz Biotechnology, Santa Cruz, Calif.; 1:1000) and mouse monoclonal antibody anti-β-actin (Abcam, UK; 1:10000) as primary antibodies. The secondary antibodies were Goat anti Rabbit IgG HRP (Santa Cruz Biotechnology Santa Cruz, Calif.; 1:2000) and Goat anti Mouse IgG HRP (Autogen Bioclear, UK; 1:2000). The same procedure was used to assess EGFR and phospho-EGFR expression in HCT116 human colon carcinoma cells.

[2] = 25 μM ATP, read-out: IC50 (nM) EGFR kinase activity

T1 sequence (P00533 25-1210): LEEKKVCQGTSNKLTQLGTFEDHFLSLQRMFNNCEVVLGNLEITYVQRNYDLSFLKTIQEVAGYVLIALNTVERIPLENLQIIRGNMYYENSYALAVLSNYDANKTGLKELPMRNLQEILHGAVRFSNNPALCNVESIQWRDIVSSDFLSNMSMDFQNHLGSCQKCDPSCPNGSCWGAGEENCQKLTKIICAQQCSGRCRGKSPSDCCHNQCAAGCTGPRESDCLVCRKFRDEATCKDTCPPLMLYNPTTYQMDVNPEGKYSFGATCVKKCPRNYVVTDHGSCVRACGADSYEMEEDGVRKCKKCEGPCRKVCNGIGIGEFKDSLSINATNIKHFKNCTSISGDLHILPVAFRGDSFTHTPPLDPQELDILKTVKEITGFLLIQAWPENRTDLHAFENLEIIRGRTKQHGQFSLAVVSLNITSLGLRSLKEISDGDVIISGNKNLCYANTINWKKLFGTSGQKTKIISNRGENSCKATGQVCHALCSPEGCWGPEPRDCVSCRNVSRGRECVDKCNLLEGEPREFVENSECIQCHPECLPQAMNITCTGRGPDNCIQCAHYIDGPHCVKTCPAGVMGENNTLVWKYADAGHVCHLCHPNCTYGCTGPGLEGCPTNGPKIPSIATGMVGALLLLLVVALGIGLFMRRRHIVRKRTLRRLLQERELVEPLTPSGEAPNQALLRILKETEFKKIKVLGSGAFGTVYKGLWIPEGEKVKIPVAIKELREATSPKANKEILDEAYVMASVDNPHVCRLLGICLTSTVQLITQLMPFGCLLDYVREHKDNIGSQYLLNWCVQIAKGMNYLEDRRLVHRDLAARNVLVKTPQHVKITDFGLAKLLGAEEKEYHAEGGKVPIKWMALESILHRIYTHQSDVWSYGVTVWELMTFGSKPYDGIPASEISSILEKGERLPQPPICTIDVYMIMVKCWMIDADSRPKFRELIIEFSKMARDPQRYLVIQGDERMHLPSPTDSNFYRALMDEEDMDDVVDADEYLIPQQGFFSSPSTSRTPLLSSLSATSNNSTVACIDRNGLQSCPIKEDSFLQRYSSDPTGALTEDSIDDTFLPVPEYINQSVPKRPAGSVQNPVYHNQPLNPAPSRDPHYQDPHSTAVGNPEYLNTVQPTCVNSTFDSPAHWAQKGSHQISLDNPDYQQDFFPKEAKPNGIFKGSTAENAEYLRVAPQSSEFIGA
T2 sequence (P00533 25-1210): as above

Row | Structure (SMILES) | IC50 (EGFR kinase; [2]) | Cellular EGFR autophosphorylation inhibition, IC50 in words [1] | IC50 [1] | EGFR kinase activity IC50, range in words (EGFR kinase) | EGFR kinase activity relative to quinoline 18 (EGFR kinase; 17 compared with 18) | IC50 (EGFR kinase; read-out: EGFR kinase activity IC50)
1 | CNC/C=C/C(=O)Nc1cc2c(Nc3ccc(F)c(Cl)c3)c(C#N)cnc2cc1OCCF.Cl [compound 24, (E)-4-Methylamino-but-2-enoic acid [4-(3-chloro-4-fluorophenylamino)-3-cyano-7-(2-fluoroethoxy)-quinolin-6-yl]-amide hydrochloride] | 0.29 ± 0.03 nM | low nanomolar range | 8.12 ± 2.03 nM | – | – | –
2 | CCOc1cc2ncc(C#N)c(Nc3ccc(F)c(Cl)c3)c2cc1NC(=O)/C=C/CN(C)Cc1ccc(F)cc1 [compound 14, (E)-4-[(4-Fluorobenzyl)methylamino]-but-2-enoic acid [4-(3-chloro-4-fluorophenylamino)-3-cyano-7-ethoxyquinoline-6-yl]amide] | 0.57 ± 0.12 nM | low nanomolar range | 16.5 ± 8.38 nM | sub-nanomolar | – | –
3 | CCOc1cc2ncc(C#N)c(Nc3ccc(F)c(Cl)c3)c2cc1NC(=O)/C=C/CNCc1cn(CCF)nn1 [compound 17, (E)-4-{[1-(2-Fluoro-ethyl)-1H-[1,2,3]triazol-4-ylmethyl]-amino}-but-2-enoic acid [4-(3-chloro-4-fluoro-phenylamino)-3-cyano-7-ethoxy-quinolin-6-yl]-amide hydrochloride] | 1.81 ± 0.18 nM | low nanomolar range | 22 ± 9.06 nM | – | two-fold more active than 18 | –
4 | CCOc1cc2ncc(C#N)c(Nc3ccc(F)c(Cl)c3)c2cc1NC(=O)/C=C/CNC [compound 10, (E)-4-(Methylamino)-but-2-enoic acid [4-(3-chloro-4-fluorophenylamino)-3-cyano-7-ethoxy-quinoline-6-yl]amide] | 0.25 ± 0.06 nM | low nanomolar range | 5.35 ± 1.52 nM | sub-nanomolar | – | –
5 | Nc1cc2ncnc(Nc3cccc(Br)c3)c2cc1N [BPDQ, 4-N-(3-bromophenyl)quinazoline-4,6,7-triamine, reference compound] | 0.81 ± 0.01 nM | – | – | – | – | –
6 | C#CCNC/C=C/C(=O)Nc1cc2c(Nc3ccc(F)c(Cl)c3)c(C#N)cnc2cc1OCC.Cl [compound 25, (E)-4-Prop-2-ynylaminobut-2-enoic acid [4-(3-chloro-4-fluorophenylamino)-3-cyano-7-ethoxy-quinolin-6-yl]-amide hydrochloride] | – | low nanomolar range | 60.2 ± 17.1 nM | – | – | 0.03 nM
7 | CCOc1cc2ncc(C#N)c(Nc3ccc(F)c(Cl)c3)c2cc1NC(=O)/C=C/CN(C)CCF [compound 13, (E)-4-[(2-Fluoroethyl)methylamino]-but-2-enoic acid [4-(3-chloro-4-fluorophenylamino)-3-cyano-7-ethoxyquinoline-6-yl]amide] | 0.8 ± 0.04 nM | low nanomolar range | 23 ± 12 nM | sub-nanomolar | – | –
